Positions of bridges follow the written chain, without caps; N, C: chain ends. Residues, ends and D or L forms follow the SMILES beside them. No end group written: not given here.
Legend:
HIV-1-antibodies = experiment: ELISA, cyclic versus non-cyclic peptides, sera at various dilutions; assay type: binding, human
Experimental: TABLE 5 is provided to illustrate the sensitivity of cyclic versus noncyclic peptides in the ELISA test by comparing the results of some sera at various dilutions.
Plates used in this experiment were coated with solutions of peptides at 10 μg/ml. (Experimental results of TABLE 5 were obtained with plates coated with peptides at 0,5 μg/ml). Four different HIV-1 positive serum samples were serially diluted and their titers determined. The titer was defined as the serum dilution giving an absorbancy reading of 1:0 in the conditions of the ELISA procedure already described.
(§1) Each well of the microtiter plate is saturated with 100 μl of a solution containing a peptide or mixture of peptides (5 μg/ml) and left overnight. The wells are emptied and washed twice with a washing buffer (Tris, 0.043M; NaCl, 0.5M;thimerosal, 0.01% w/v; Tween 20, 0.05% v/v; pH 7.4). The wells are then saturated with 0.35 ml of washing buffer for 1 hr. at 37° C. and washed once with the same buffer. Serum samples to be analyzed are diluted with specimen buffer (washing buffer plus casein, 0.05% w/v). The wells are rinsed with washing buffer prior to the addition of the diluted serum sample (0.1 ml). These are left to incubate for 1 hr. at room temperature. The wells are then emptied, washed twice rapidly and then once for two minutes with washing buffer. […] The wells are then emptied and washed twice rapidly with washing buffer and then five times in which the buffer was in contact with the well 2 minutes per washing.
(§2) The substrate solution (3,3', 5,5'-tetramethylbenzidine, 8 mg per ml of DMSO) is diluted with 100 volumes 0.1M citrate-acetate buffer, pH 5.6 containing 0.1% v/v of 30% H2 O2 and added to each well (0.1 ml per well). After 10 minutes the contents of each well is treated with 0.1 ml 2N H2 SO4 and the optical density read at 450 nm. All determinations are done in duplicate.

HIV-1 antibodies = experiment: ELISA, single peptides identifying HIV-1 positive sera; assay type: binding, human
Experimental: According to this test a peptide or a peptide mixture of the present invention is adsorbed onto the wells of a microtiter plate. The wells are then treated with sera to be tested. After washing, anti-human IgG labeled with peroxidase is added to the wells. The determination of the peroxidase is performed with a corresponding substrate, e.g. with o-phenylene diamine. Also in this procedure the peroxidase can be exchanged by another label, e.g. by a radioactive or fluorescence label.
as §1, §2

**Q.** Which results are given for `CC[C@H](C)[C@@H]1NC(=O)[C@H](CC(C)C)NC(=O)[C@H](CCCCN)NC(=O)CNC(=O)[C@H](CO)NC(=O)[C@@H](NC(=O)CN)CSSC[C@@H](C(=O)N[C@H](C(=O)N[C@H](C(=O)N[C@@H](C)C(=O)N[C@H](C(=O)N2CCC[C@H]2C(=O)N[C@@H](Cc2c[nH]c3ccccc23)C(=O)N[C@@H](CC(N)=O)C(=O)N[C@@H](C)C(=O)N[C@@H](CO)C(=O)O)C(C)C)[C@@H](C)O)[C@@H](C)O)NC1=O` [Peptide 80] (H-GCSGKLICTTAVPWNAS-OH; disulfide 2-8)?
**A.** ELISA optical density (HIV-1-antibodies; serum 87V103, dilution 1/50): 0.003 optical density units; ELISA optical density (HIV-1-antibodies; serum 1428, dilution 1/50): 1.047 optical density units; ELISA optical density (HIV-1-antibodies; serum M-5, dilution 1/50): 2.104 optical density units; ELISA optical density (HIV-1-antibodies; serum M-5, dilution 1/100): 1.881 optical density units; ELISA optical density (HIV-1-antibodies; serum M-5, dilution 1/200): 1.599 optical density units; ELISA optical density (HIV-1-antibodies; serum M-5, dilution 1/800): 0.767 optical density units; ELISA optical density (HIV-1-antibodies; serum M-7, dilution 1/50): 0.191 optical density units; ELISA optical density (HIV-1-antibodies; serum M-7, dilution 1/100): 0.067 optical density units; ELISA optical density (HIV-1-antibodies; serum M-7, dilution 1/200): 0.019 optical density units; ELISA optical density (HIV-1-antibodies; serum M-7, dilution 1/400): 0.010 optical density units; ELISA optical density (HIV-1-antibodies; serum M-7, dilution 1/800): 0.005 optical density units; ELISA optical density (HIV-1-antibodies; serum M-8, dilution 1/50): 1.026 optical density units; ELISA optical density (HIV-1-antibodies; serum M-8, dilution 1/100): 0.737 optical density units; ELISA optical density (HIV-1-antibodies; serum M-8, dilution 1/200): 0.520 optical density units; ELISA optical density (HIV-1-antibodies; serum M-8, dilution 1/400): 0.340 optical density units; ELISA optical density (HIV-1-antibodies; serum M-8, dilution 1/800): 0.159 optical density units; ELISA optical density (HIV-1-antibodies; serum M-16, dilution 1/50): 1.601 optical density units; ELISA optical density (HIV-1-antibodies; serum M-16, dilution 1/100): 1.300 optical density units; ELISA optical density (HIV-1-antibodies; serum M-16, dilution 1/200): 0.903 optical density units; ELISA optical density (HIV-1-antibodies; serum M-16, dilution 1/400): 0.583 optical density units; ELISA optical density (HIV-1-antibodies; serum M-16, dilution 1/800): 0.329 optical density units; % Positive Sera correctly Identified (HIV-1 antibodies; ELISA, single peptide): 100%

**Q.** Which “% Positive Sera correctly Identified” value (HIV-1 antibodies; peptide Free) does the source give for “CGRAEQASQEVKN [Peptide 46, NH2 -CGRAEQASQEVKN-COOH]” here?
**A.** 0%

**Q.** And the “% Positive Sera correctly Identified” value (HIV-1 antibodies; peptide coupled)?
**A.** 93%

**Q.** For “NH2 -VERYLKDQQLLGIWGCSGKLICTTAVPWNAS-COOH (H-VERYLKDQQLLGIWGCSGKLICTTAVPWNAS-OH; cysteine pairing not given here) [Peptide 81, linear peptide, gp41 590-620]”, which “% Positive Sera correctly Identified” value (HIV-1 antibodies; ELISA, single peptide) is on record?
**A.** 100%

**Q.** For “NH2 -SGKLICTTAVPWNASWSNKSLEQGC-COOH [Peptide 56]”, which “% Positive Sera correctly Identified” value (HIV-1 antibodies; ELISA, single peptide) is on record?
**A.** 100%

**Q.** With CGKIEPLGVAPTKAKRRVVQREKR [Peptide 71] as the compound, how does the “% Positive Sera correctly Identified” value (HIV-1 antibodies; ELISA, single peptide) read?
**A.** 83%

**Q.** For GHACVPTDPNPQEVVL [Peptide 14], which “% Positive Sera correctly Identified” value (HIV-1 antibodies; ELISA, single peptide) is on record?
**A.** 50%

**Q.** “NH2 -CGVERYLKQQLLGIWGCSGKLICTTAVPWNASWSNKSLEQI-COOH [Peptide 99]” was tested. Which “% Positive Sera correctly Identified” value (HIV-1 antibodies; ELISA, single peptide) did it give?
**A.** 100%

**Q.** How did the “% Positive Sera correctly Identified” value (HIV-1 antibodies; ELISA, single peptide) turn out when `CC[C@H](C)[C@H](NC(=O)[C@H](CCC(N)=O)NC(=O)[C@H](CCC(=O)O)NC(=O)[C@H](CC(C)C)NC(=O)[C@H](CO)NC(=O)[C@H](CCCCN)NC(=O)[C@H](CC(N)=O)NC(=O)[C@H](CO)NC(=O)[C@H](Cc1c[nH]c2ccccc12)NC(=O)[C@H](CO)NC(=O)[C@H](C)NC(=O)[C@H](CC(N)=O)NC(=O)[C@H](Cc1c[nH]c2ccccc12)NC(=O)[C@@H]1CCCN1C(=O)[C@@H](NC(=O)[C@H](C)NC(=O)[C@@H](NC(=O)[C@@H](NC(=O)[C@@H]1CSSC[C@H](NC(=O)CN)C(=O)N[C@@H](CO)C(=O)NCC(=O)N[C@@H](CCCCN)C(=O)N[C@@H](CC(C)C)C(=O)N[C@@H]([C@@H](C)CC)C(=O)N1)[C@@H](C)O)[C@@H](C)O)C(C)C)C(=O)O` [Peptide 96] (H-GCSGKLICTTAVPWNASWSNKSLEQI-OH; disulfide 2-8) was run?
**A.** 100%

**Q.** With “CGNNPPIPVGE [Peptide 41, NH2 -CGNNPPIPVGE-COOH]” as the compound, how does the “% Positive Sera correctly Identified” value (HIV-1 antibodies; peptide Free) read?
**A.** 63%

**Q.** And the “% Positive Sera correctly Identified” value (HIV-1 antibodies; peptide coupled)?
**A.** 73%

**Q.** For “NH2 -IWGCSGKLICTTAVPWNAS-COOH (H-IWGCSGKLICTTAVPWNAS-OH; cysteine pairing not given here) [Peptide 78, linear peptide, gp41 602-620]”, which “% Positive Sera correctly Identified” value (HIV-1 antibodies; ELISA, single peptide) is on record?
**A.** 100%

**Q.** For “NH2 -GCSGKLICTTAVPWNAS-COOH (H-GCSGKLICTTAVPWNAS-OH; cysteine pairing not given here) [Peptide 77, linear peptide, gp41 604-620]”, which ELISA optical density (HIV-1-antibodies; serum 87V103, dilution 1/50) is on record?
**A.** 0.000 optical density units

**Q.** And the ELISA optical density (HIV-1-antibodies; serum 1428, dilution 1/50)?
**A.** 0.926 optical density units

**Q.** And the ELISA optical density (HIV-1-antibodies; serum M-5, dilution 1/50)?
**A.** 1.719 optical density units

**Q.** And the ELISA optical density (HIV-1-antibodies; serum M-5, dilution 1/100)?
**A.** 1.459 optical density units

**Q.** And the ELISA optical density (HIV-1-antibodies; serum M-5, dilution 1/200)?
**A.** 1.248 optical density units

**Q.** What about the ELISA optical density (HIV-1-antibodies; serum M-5, dilution 1/400) of the same compound?
**A.** 0.959 optical density units

**Q.** And the ELISA optical density (HIV-1-antibodies; serum M-5, dilution 1/800)?
**A.** 0.057 optical density units

**Q.** And the ELISA optical density (HIV-1-antibodies; serum M-7, dilution 1/50)?
**A.** 0.142 optical density units

**Q.** What about the ELISA optical density (HIV-1-antibodies; serum M-7, dilution 1/100) of the same compound?
**A.** 0.025 optical density units

**Q.** And the ELISA optical density (HIV-1-antibodies; serum M-7, dilution 1/200)?
**A.** 0.007 optical density units

**Q.** And the ELISA optical density (HIV-1-antibodies; serum M-7, dilution 1/400)?
**A.** 0.001 optical density units

**Q.** And the ELISA optical density (HIV-1-antibodies; serum M-7, dilution 1/800)?
**A.** 0.000 optical density units

**Q.** What about the ELISA optical density (HIV-1-antibodies; serum M-8, dilution 1/50) of the same compound?
**A.** 0.795 optical density units

**Q.** And the ELISA optical density (HIV-1-antibodies; serum M-8, dilution 1/100)?
**A.** 0.507 optical density units

**Q.** And the ELISA optical density (HIV-1-antibodies; serum M-8, dilution 1/200)?
**A.** 0.376 optical density units

**Q.** And the ELISA optical density (HIV-1-antibodies; serum M-8, dilution 1/400)?
**A.** 0.209 optical density units

**Q.** What about the ELISA optical density (HIV-1-antibodies; serum M-8, dilution 1/800) of the same compound?
**A.** 0.062 optical density units

**Q.** And the ELISA optical density (HIV-1-antibodies; serum M-16, dilution 1/50)?
**A.** 1.219 optical density units

**Q.** And the ELISA optical density (HIV-1-antibodies; serum M-16, dilution 1/100)?
**A.** 0.962 optical density units

**Q.** And the ELISA optical density (HIV-1-antibodies; serum M-16, dilution 1/200)?
**A.** 0.613 optical density units

**Q.** What about the ELISA optical density (HIV-1-antibodies; serum M-16, dilution 1/400) of the same compound?
**A.** 0.301 optical density units

**Q.** And the ELISA optical density (HIV-1-antibodies; serum M-16, dilution 1/800)?
**A.** 0.205 optical density units

**Q.** What about the “% Positive Sera correctly Identified” value (HIV-1 antibodies; ELISA, single peptide) of the same compound?
**A.** 100%

**Q.** With TTAVPWNASWSNKSLEQGC [Peptide 42] as the compound, how does the “% Positive Sera correctly Identified” value (HIV-1 antibodies; ELISA, single peptide) read?
**A.** 5%

**Q.** Which “% Positive Sera correctly Identified” value (HIV-1 antibodies; ELISA, single peptide) does the source give for “NH2 -CGYLKDQQLLGIWGCSGKLICTTAVPWNASWSNKSLEQI-COOH [Peptide 97]” here?
**A.** 100%

**Q.** How did the “% Positive Sera correctly Identified” value (HIV-1 antibodies; ELISA, single peptide) turn out when “NH2 -CGLGIWGCSGKLICTTAVPWNASWSNKSLEQI-COOH [Peptide 98]” was run?
**A.** 100%

**Q.** For “NH2 -GCSGKLICTTAVPWNASWSWSNKSLEQI-COOH [Peptide 95]”, which “% Positive Sera correctly Identified” value (HIV-1 antibodies; ELISA, single peptide) is on record?
**A.** 100%

**Q.** With `CC[C@H](C)[C@H](NC(=O)CNC(=O)[C@H](CC(C)C)NC(=O)[C@H](CC(C)C)NC(=O)[C@H](CCC(N)=O)NC(=O)[C@H](CCC(N)=O)NC(=O)[C@H](CC(=O)O)NC(=O)[C@H](CCCCN)NC(=O)[C@H](CC(C)C)NC(=O)[C@H](Cc1ccc(O)cc1)NC(=O)[C@H](CCCNC(=N)N)NC(=O)[C@H](CCC(=O)O)NC(=O)[C@@H](N)C(C)C)C(=O)N[C@@H](Cc1c[nH]c2ccccc12)C(=O)NCC(=O)N[C@H]1CSSC[C@@H](C(=O)N[C@H](C(=O)N[C@H](C(=O)N[C@@H](C)C(=O)N[C@H](C(=O)N2CCC[C@H]2C(=O)N[C@@H](Cc2c[nH]c3ccccc23)C(=O)N[C@@H](CC(N)=O)C(=O)N[C@@H](C)C(=O)N[C@@H](CO)C(=O)O)C(C)C)[C@@H](C)O)[C@@H](C)O)NC(=O)[C@H]([C@@H](C)CC)NC(=O)[C@H](CC(C)C)NC(=O)[C@H](CCCCN)NC(=O)CNC(=O)[C@H](CO)NC1=O` [Peptide 88] (H-VERYLKDQQLLGIWGCSGKLICTTAVPWNAS-OH; disulfide 16-22) as the compound, how does the “% Positive Sera correctly Identified” value (HIV-1 antibodies; ELISA, single peptide) read?
**A.** 100%

**Q.** “NH2 -FAFAFGCSGKLICTTAVPWNASWSNKSLEQI-COOH [Peptide 91]” was tested. Which “% Positive Sera correctly Identified” value (HIV-1 antibodies; ELISA, single peptide) did it give?
**A.** 94%
